Experiments:
[1] = Catalepsy test in rats (s.c., vertical wire mesh); conditions: rat, maximum catalepsy within the first 6 hours
Description: Test compound is given s.c. in different doses. The rat (170-240 g) is placed on a vertical wire mesh (mesh diameter 12 mm). The rat is considered cataleptic if it remains immobile for more than 15 sec. The maximum number of rats showing catalepsy within the first 6 hours is recorded for each dose group. The results are recorded in fractions and an ED50 value is calculated by means of log-probit analysis. The results are shown in Table 1 (cf. Our Internat. Patent Application Publ. No. WO 92/00070).

[2] = Inhibition of diazepam withdrawal symptoms in mice (black/white test box); assay type: in vivo, mice (male BKW); conditions: 0.1 mg/kg i.p.; FIG. 1
Description: (§1) The tests are tests for the effect of a substance on the abstinence symptoms induced by withdrawal of a drug of a substance of abuse in mice measured as the effect on some specific behavioral changes following to withdrawal of the drug or substance of abuse.
(§2) The test was conducted using an open-top experimental box (45*27*27 cm) two fifths of which was partitioned from the rest, painted black and illuminated with a dim red light (1×60 W, zero Lux). The remainder of the box was painted white and brightly illuminated (60 W, 400 Lux) with a white light source. The light sources were located 17 cm above the box and the base of the box was lined into 9 cm squares. Access between the two compartments was by means of a 7.5×7.5 cm opening located in floor level at the centre of the partition.
(§3) The mice were male BKW mice having weight of 25-30 g, housed in groups of 10 and given free acces to drink and food and kept on a dark/light cycle of 12 hours.
Diazepam (10 mg/kg) was given i.p. twice a day for 7 days and then withdrawn. […]
The test was carried out by taking the mice to a dimly illuminated room and then after 1 hour adaption to the new environment placing them in the centre of the white section of the test box. […] The following behavioural changes were measured: […]

[3] = Inhibition of nicotine withdrawal symptoms in mice (black/white test box); assay type: in vivo, mice (male BKW); conditions: 0.1 mg/kg i.p.; FIG. 2
Description: as §1, §2, §3
The test was carried out by taking the mice to a dimly illuminated room and then after 1 hour adaption to the new environment placing them in the centre of the white section of the test box. Behavioural changes were assed via remote video recording. The following behavioural changes were measured:
a) The time spent in the white and black section;
b) the number of explorative rearings in both the white and black section; […]

SMILES | Cataleptic activity ED50 (s.c.) [1] [µmol/kg] | other results
CN1CCN(CCN2CCC(c3cn(-c4ccc(F)cc4)c4ccc(Cl)cc34)CC2)C1=O [Comp. No 3, 5-chloro-1-(4-fluorophenyl)-3-[1-[2-(3-methyl-2-imidazolidinon-1-yl)ethyl]-4-piperidyl]-1H-indole] | 31 | –
O=C1CCCN1CCN1CCC(c2cn(-c3ccc(F)cc3)c3ccc(Cl)cc23)CC1 [Comp. No 4, 5-chloro-1-(4-fluorophenyl)-3-[1-[2-(2-pyrrolidinon-1-yl)ethyl]-4-piperidyl]-1H-indole] | 23 | –
O=C1NCCN1CCN1CCC(c2cn(-c3ccc(F)cc3)c3ccc(Cl)cc23)CC1 [Sertindole, 5-chloro-1-(4-fluorophenyl)-3-[1-[2-(2-imidazolidinon-1-yl)ethyl]-4-piperidyl]-1H-indole] | – | Inhibiting effect on the withdrawal behavioural changes, diazepam [2]: statistically significant inhibiting effect; Relieving effect on the symptoms following withdrawal of diazepam [2]: marked relieving effect; Inhibiting effect on the withdrawal behavioural changes, nicotine [3]: statistically significant inhibiting effect; Relieving effect on the symptoms following withdrawal of nicotine [3]: marked relieving effect
O=C1NCCN1CCN1CC=C(c2cn(-c3ccc(F)cc3)c3ccc(C(F)(F)F)cc23)CC1 [Comp. A, 1-(4-Fluorophenyl)-3-[1-[2-(2-imidazolidinon-1-yl)ethyl]-1,2,3,6-tetrahydropyridin-4-yl]-5-trifluoromethyl-1H-indole, reference compound] | 0.49 | –
O=C1NCCN1CCN1CC=C(c2cn(-c3ccc(F)cc3)c3ccc(Cl)cc23)CC1 [Comp. B, 5-Chloro-1-(4-fluorophenyl)-3-[1-[2-(2-imidazolidinon-1-yl)ethyl]-1,2,3,6-tetrahydro-4-pyridyl]-1H-indole, reference compound] | 2.2 | –
